Among the data in ChEMBL document CHEMBL3046838, “In vitro and in silico exploration of IL-2 inhibition by small drug-like molecules” (Med Chem Res, 2013) are IC50 values, retold here.

The structures appear in SMILES notation. Converted amounts (≈) assume the structure as drawn.

In one experiment the test system is Blood. As to the kind of experiment: Inhibition of ROS production in human whole blood after 30 mins by luminol-based chemiluminescence assay. Format: functional, tissue-based. The conditions noted are these: 0.5 h.
The test system of experiment [1] is PBMC. As to the kind of experiment: Immunosuppressive activity in human PBMC assessed as inhibition of PHA/PMA-induced IL-2 production after 18 hrs by ELISA. Format: functional, cell-based.
The test system of experiment [2] is PBMC. Nature of the experiment: Immunosuppressive activity in human PBMC assessed as inhibition of PHA-induced T cell proliferation after 72 hrs by [3H]thymidine incorporation assay. Format: functional, cell-based.
Experiment [3] addresses T1, Interleukin-2 receptor subunit alpha (Homo sapiens, UniProt P01589).
T1 sequence (P01589 whole entry): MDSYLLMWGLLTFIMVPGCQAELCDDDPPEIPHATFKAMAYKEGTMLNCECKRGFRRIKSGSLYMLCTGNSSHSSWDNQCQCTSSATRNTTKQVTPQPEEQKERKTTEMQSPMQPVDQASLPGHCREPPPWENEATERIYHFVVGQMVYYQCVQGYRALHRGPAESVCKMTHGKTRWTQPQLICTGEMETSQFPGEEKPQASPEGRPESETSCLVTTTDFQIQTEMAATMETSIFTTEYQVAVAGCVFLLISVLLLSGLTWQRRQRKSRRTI
As to the kind of experiment: Competitive inhibition of IL2 receptor alpha (unknown origin).

A further experiment deals with CC-1. Nature of the experiment: Cytotoxicity against rat CC1 after 48 hrs by MTT assay. Format: cell-based. The conditions noted are these: CC-1, 48 h.
For a further experiment, the system named is 3T3-L1. As to the kind of experiment: Cytotoxicity against mouse 3T3L1 after 48 hrs by MTT assay. Format: cell-based. The conditions noted are these: 3T3-L1, 48 h.

In the experiment with Blood, `CC1(C)CC(=O)Nc2cc([N+](=O)[O-])ccc2N1` gave an IC50 of 12.4 µg/mL (≈ 52.7 µM).
`CC1CC(=O)Nc2cc(N)ccc2N1` (configuration not stated): the IC50 turned out to be 4.5 µg/mL (≈ 23.5 µM) in the experiment on Blood, 13 µg/mL (≈ 68 µM) with PBMC [1] and 4.4 µg/mL (≈ 23 µM) in the experiment with PBMC [2].
Consider `O=C(/C=C/c1ccccc1)c1ccccc1O` [2'-HYDROXYCHALCONE], for which the IC50 amounted to 19.7 µg/mL (≈ 87.8 µM) with PBMC [1] and 11 µg/mL (≈ 49.1 µM) with PBMC [2].
As to `O=C(/C=C/c1ccccc1)c1cccc(O)c1`, the IC50 in the experiment on Blood was determined as 4.8 µg/mL (≈ 21.4 µM); in the experiment with PBMC [1], 14.2 µg/mL (≈ 63.3 µM); with PBMC [2], 8.2 µg/mL (≈ 36.6 µM).
In the same order, the values of `Cc1ccc(/C=C/C(=O)c2ccc(N)cc2)cc1` are 12.4 µg/mL (≈ 52.3 µM), 15.1 µg/mL (≈ 63.6 µM) and 3.2 µg/mL (≈ 13.5 µM).
`COC(=O)[C@H](Cc1ccc(C#Cc2ccccc2)cc1)NC(=O)C[C@H]1CCCN(C(=N)N)C1` gave an IC50 in experiment [3] of 6 µM.
In the case of `CC1C/C(=N\NC(=O)Nc2ccccc2)Nc2cc([N+](=O)[O-])ccc2N1` (configuration not stated), in the experiment on PBMC [2], the IC50 was determined as 25.5 µg/mL (≈ 72 µM).
`Nc1ccc(C(=O)/C=C/c2cccc(Cl)c2)cc1`: the half-maximal inhibitory concentration (IC50) in the experiment on CC-1 is 16.7 µg/mL (≈ 64.8 µM); in the experiment on 3T3-L1, 9.5 µg/mL (≈ 36.9 µM); in the experiment with Blood, 24.4 µg/mL (≈ 94.7 µM); with PBMC [1] it was 2.5 µg/mL (≈ 9.7 µM); in the experiment with PBMC [2], < 0.5 µg/mL.
`Cc1ccc(/C=C/C(=O)c2ccccc2)cc1`: the concentration for half-maximal inhibition (IC50) in the experiment with Blood came to 31 µg/mL (≈ 139 µM); with PBMC [1] it was 15.6 µg/mL (≈ 70.2 µM); in the experiment on PBMC [2] it was 7.8 µg/mL (≈ 35.1 µM).
